From patent US8703754B2, “6-amino-2-{[(1S)-1-methylbutyl]oxy}-9-[5-(1-piperidinyl)-7,9-dihydro-8H-purin-8-one maleate” (GlaxoSmithKline LLC, priority 2010, dated 2014) come the findings set out here.

Data set [1] is described as follows: Stability testing under ICH Q1A(R2) and Q1B conditions. The settings on record: ICH Q1A(R2) stability and Q1B photostability conditions. Type of data set: physicochemical.
Data set [2] has as its system Interferon-α. Briefly: Induction of Interferon-α using cryopreserved human PBMCs. Format: cell-based. The settings on record: PBMC, 24 hours, normalised to 1 μM resiquimod and DMSO, read-out: mean pEC50 for induction of IFN-α (converted).
Description: Assay for the Induction of Interferon-α Using Cryopreserved Human Peripheral Blood Mononuclear Cells (PBMCs)
Serial 2-fold dilutions with DMSO were prepared and 0.25 μl dispensed into 384-well clear Greiner polypropylene plates.
Blood samples of up to 200 mL were obtained from healthy human donors. Whole blood in 25 mL volumes was overlaid onto 15 mL Ficoll gradients in Leucosep tubes, and centrifuged at 1000 g for 20 min. Cells in the band at the plasma/histopaque interface were carefully removed and washed twice with PBS (centrifuged at 400 g for 5 min to harvest). The final pellet was resuspended in freezing medium (90% Heat-inactivated serum, 10% DMSO) to a cell concentration of 4×10^7 cells/mL. The resuspended cells were then cryopreserved (frozen) using a rate controlled freezer, and stored at −140° C. for up to 4 months.
Incubation and Assay for Interferon-α
Immediately prior to assay, vials of cryopreserved (frozen) PBMCs were thawed rapidly in a water bath at 37° C. A 1:10 dilution of the cells in trypan blue was prepared and counted. […]
A multi-isoform immunoassay was used to quantify IFN-α in PBMC supernatants. […] Following three washes with PBS, 30 μl of ×2 T buffer (MSD) was added to each well and the plate was read on an MSD Sector 6000 plate reader. […]
Data set [3] concerns Interferon-α. As to the kind of experiment: Induction of Interferon-α using fresh human PBMCs. Type of data set: cell-based. The settings on record: PBMC, 24 hr, relative to 2 μM resiquimod control, read-out: mean pEC50 for induction of IFN-α (converted). As to the method:
(§1) Assay for the Induction of Interferon-α and TNF-α Using Fresh Human Peripheral Blood Mononuclear Cells (PBMCs)
(§2) 1 μL of test compound was transferred into 96-well tissue culture plates using a Biomek FX. Each compound was assayed in duplicate for each donor. Each plate contained a dilution series of the TLR7/8 agonist resiquimod as standard and Column 11 contained 1 μL of 200 μM resiquimod (giving a 2 μM final concentration, used to define the approximate maximal response to resiquimod).
(§3) Blood samples from two human donors were collected into sodium heparin (10 U/mL). 25 mL volumes of whole blood were overlaid onto 15 mL Histopaque in Leucosep tubes which were centrifuged at 800 g for 20 min and the band at the plasma/histopaque interface carefully removed. The collected cells were centrifuged at 2500 rpm for 10 min and the pellet resuspended in 10 mL of media (RPMI 1640 (Low endotoxin) supplemented with 10% v/v foetal calf serum (FCS, low endotoxin) 100 U/mL penicillin G, 100 μg/mL streptomycin, 10 mM L-glutamine and 1× non-essential amino acids). A 1:20 dilution of the cells was prepared using trypan blue and the cells counted using a haemocytometer.
(§4) Incubation and Assays for Interferon-α and TNF-α

The test system of data set [4] is TNF-α. As to the kind of experiment: Induction of TNF-α using fresh human PBMCs. The settings on record: PBMC, 24 hr, relative to 2 μM resiquimod control, read-out: mean pEC50 for induction of TNF-α (converted). Format: cell-based. The procedure: as §1, §2, §3, §4
Data set [5] deals with IL-5. As to the kind of experiment: Allergen-driven cytokine assay using fresh human PBMCs from atopic volunteers (IL-5). Type of data set: cell-based. The settings on record: 0.04 μM; PBMCs from three allergic donors, 10 ug/mL Timothy Grass antigen, up to 6 days. The procedure: (§5) Allergen-driven Cytokine Assay Using Fresh Human Peripheral Blood Mononuclear Cells (PBMCs) from Atopic Volunteers
(§6) An assay based on co-culture of atopic human donor derived peripheral blood mononuclear cells (PBMCs) with allergen and test compounds was developed. After 5-6 days culture, cell supernatants were assayed for a range of cytokines.
(§7) Each compound was assayed in triplicate at all concentrations.
(§8) Defibrinated human blood from volunteers known to be allergic to Timothy grass was centrifuged at 2500 rpm for 15 minutes. The upper layer of serum was collected and heat-inactivated at 56° C. for 30 minutes (HI-autologous serum). The lower layer of cells was resuspended in 50 mL PBS (+Ca +Mg), 25 mL diluted blood were overlaid onto 20 mL Lymphoprep in 50 ml tubes then centrifuged at 2500 rpm for 20 minutes at RT. The band at the serum/Lymphoprep interface was carefully removed. The collected cells were washed with PBS and re-suspended at 4×10^6 per mL in growth medium with HI-autologous serum. PBMCs were seeded at 0.4×10^6 cells per well in flat-bottomed 96 well plates in the presence of 10 ug/mL Timothy Grass antigen (Alk Abello) and test compounds at appropriate concentrations in a total volume of 200 μL.
(§9) Incubation and Cytokine Assays
(§10) Plates were incubated at 37° C. in 5% CO2 for up to 6 days. The cell medium from each well was harvested and stored at −20° C. prior to analysis.

Data set [6] deals with IL-13. As to the kind of experiment: Allergen-driven cytokine assay using fresh human PBMCs from atopic volunteers (IL-13). Format: cell-based. The settings on record: 0.04 μM; PBMCs from three allergic donors, 10 ug/mL Timothy Grass antigen, up to 6 days. The procedure: as §5, §6, §7, §8, §9, §10
The test system of data set [7] is Interferon-α. Briefly: Induction of Interferon-α following intranasal dosing in the mouse. Format: in vivo. The settings on record: female BALB/c mice, 2 hours after dosing, ELISA. As to the method:
Assay for the Induction of Interferon-α Following Intranasal Dosing in the Mouse
The compound of Reference Example 1 was dissolved in 0.2% Tween 80 in saline and administered intranasally (5 μL in total between the nostrils) to female BALB/c mice (n=6) under general anaesthesia. Animals were euthanased 2 hours after dosing and a terminal blood sample was taken and serum levels of Interferon-a measured using an ELISA assay.
(An ELISA detects its analyte on a solid surface through an enzyme-linked reagent.)

As for `CCC[C@H](C)Oc1nc(N)c2[nH]c(=O)n(CCCCCN3CCCCC3)c2n1.O=C(O)/C=C\C(=O)O` [Example 2, 6-Amino-2-{[(1S)-1-methylbutyl]oxy}-9-[5-(1-piperidinyl)pentyl]-7,9-dihydro-8H-purin-8-one, Maleate Salt], in data set [1], the “degradation under stability testing” value was “no significant degradation”.

For the compound `CCC[C@H](C)Oc1nc(N)c2[nH]c(=O)n(CCCCCN3CCCCC3)c2n1` [Reference Example 1, 6-Amino-2-{[(1S)-1-methylbutyl]oxy}-9-[5-(1-piperidinyl)pentyl]-7,9-dihydro-8H-purin-8-one], the EC50 in data set [2] was < 5.01 nM; in data set [3], ≤ 1 nM; in data set [4], ≥ 316 nM. In addition, in data set [5], the “reduction of production of the Th2 cytokine IL-5 compared to the allergen control” value is recorded as ≥ 50%. In addition, the “reduction of production of the Th2 cytokine IL-13 compared to the allergen control” value in data set [6] was ≥ 50%. The “mean serum levels of Interferon-α” value in data set [7] was determined as 21029 pg/mL.
